According to patent US4714699A, “2-tolylmorpholine derivatives and pharmaceutical compositions” (Societe Anonyme Dite: Laboratoire L. Lafon, priority 1983, dated 1987):
Entries after “also recorded” stand apart in the source; their conditions may differ.

Legend:
[1] = action on the spontaneous motility; type: in vivo, male mice; conditions: mice
Description: (§1) In the following tests, CRL 40 875, in solution in distilled water, was administered intraperitoneally in a volume of 20 ml/kg to male mice and 5 ml/kg to male rats.
Half an hour after they have received CRL 40 875, the mice (6 per dose, 12 control animals) are placed in an actimeter, where their motility is recorded for 30 minutes.
(§2) In the following tests, CRL 40 897, in solution in distilled water (pH 4), was administered intraperitoneally in a volume of 20 ml/kg to male mice and in a volume of 5 ml/kg to male rats, the procedures being those given above for CRL 40 875.

[2] = interaction with reserpine; type: in vivo, male mice; conditions: i.p., mice
Description: as §1
Four hours after the intraperitoneal injection of 2.5 mg/kg of reserpine, groups of 6 mice receive CRL 40 875. The effects on the temperature and ptosis are observed.
as §2
(§3) In the tests undertaken, CRL 40 912, in solution in distilled water (pH 4.5), was administered intraperitoneally in a volume of 20 ml/kg to male mice and in a volume of 5 ml/kg to male rats, the procedures being those given above for CRL 40 875.

[3] = interaction with oxotremorine; type: in vivo, male mice
Description: as §1
CRL 40 875 is administered to groups of 6 mice half an hour before the intraperitoneal injection of 0.5 mg/kg of oxotremorine.
as §2, §3

[4] = interaction with amphetamine; type: in vivo, male rats; conditions: i.p.; 2 mg/kg amphetamine; rats
Description: as §1, §2, §3

[5] = traction test; type: in vivo, male mice; conditions: i.p., mice
Description: as §1
(§4) The test is performed on groups of 10 mice half an hour after the administration of CRL 40 875.
as §2

[6] = cardiovascular study in dogs; type: in vivo
[7] = electric shock; type: in vivo, male mice; conditions: i.p., mice
Description: as §1, §4, §2

[8] = clinical trials, treatment of depressions; type: in vivo; conditions: man
Source text: In clinical trials, good results were obtained on man with CRL 40 875 (Example 1), CRL 40 912 (Example 2) and CRL 40 897 (Example 3) in the treatment of depressions.

[9] = motility reduced by habituation to the enclosure; type: in vivo, male mice; conditions: i.p.
Description: as §1
After they have stayed in the actimeters for 18 hours, the mice (6 per dose, 12 control animals) receive CRL 40 875. They are immediately returned to their respective enclosures and, half an hour later, their motility is recorded for 30 minutes.
as §2, §3

[10] = asphyxiant anoxia (gallamine triiodoethylate); type: in vivo, male mice; conditions: i.p., mice
Description: as §1
Groups of 20 mice receive CRL 40 875 half an hour before the intraperitoneal administration of 32 mg/kg of gallamine triidoethylate (which is a reference curarizing agent).
as §2, §3

[11] = action on the intergroup aggressiveness; type: in vivo, male mice; conditions: 0.5 mg/kg and 2 mg/kg i.p., mice
Description: as §1
After they have stayed for 3 weeks in the two halves of a cage divided by an opaque partition, groups of 3 mice receive CRL 40 875. Half an hour later, the two groups from the same cage are brought together by removal of the partition, and the number of fights which occur in 10 minutes is noted.
as §2, §3

[12] = interaction with apomorphine in rats; type: in vivo, male rats; conditions: i.p., 0.5 mg/kg apomorphine
Description: as §1
CRL 40 875 is administered to groups of 6 rats 0.5 hour before the subcutaneous injection of 0.5 mg/kg of apomorphine.
as §2, §3

[13] = cardiovascular study in rats; type: in vivo; conditions: normally hypertensive rats
[14] = motility reduced by hypoxic aggression; type: in vivo, male mice; conditions: i.p.
Description: as §1
Half an hour after they have received CRL 40 875, the mice (10 per dose, 20 control animals) are subjected to acute hypobaric anoxia [pressure reduction of 600 mm Hg (i.e. about 8×10^4 pascals) in 90 seconds; release of vacuum in 45 seconds] and are then placed in an actimeter, where their motility is recorded for 10 minutes.
as §2

[15] = overall behavior and reactivities in mice; type: in vivo, male mice
Description: as §1
Groups of three mice are observed before and then 15 minutes, 30 minutes, 1 hour, 2 hours, 3 hours and 24 hours after the administration of CRL 40 875.
as §2
(§5) The toxicological and neuropsychopharmacological studies undertaken in accordance with the procedures described above for CRL 40 875 enabled the following observations to be made: […]

[16] = four plate test; type: in vivo, male mice; conditions: i.p., mice
Description: as §1, §4, §2

[17] = system: α-adrenergic; assay: α-adrenergic stimulation; conditions: in vivo; hydrochloride
[18] = neuropsychopharmacological study, overall findings; type: in vivo, mice, rats; conditions: for sedative effects: weak doses where stated
Description: as §1, §2, §3, §5

[19] = pretoxicity (LD-O, maximum non-lethal dose); type: in vivo, male mice
Description: as §1, §2, §3, §5

[20] = interaction with apomorphine in mice; type: in vivo, male mice; conditions: mice
Description: as §1
Groups of 6 mice receive CRL 40 875 0.5 hour before the subcutaneous injection of 1 or 16 mg/kg of apomorphine.
as §2, §3

[21] = overall behavior in rats; type: in vivo, male rats; conditions: 32 mg/kg i.p., male rats
Description: as §1, §5

[22] = 64 mg/kg and 32 mg/kg i.p., mice
[23] = 128 mg/kg i.p., groups of three mice
[24] = anesthetized dogs, intraduodenal (CRL 40 903: then intravenous)

Cc1ccc(C2CN(C(C)C)CCO2)cc1.Cl (centres unmarked) [CRL 40 875, 2-p-tolyl-4-isopropylmorpholine hydrochloride]
hypomotility ([1]; 8 and 32 mg/kg i.p.): very significant
minimal effective dose ([1]; Mus musculus, ip, read-out: dose as from which motility is reduced): ≥ 2 mg/kg
effect on the ptosis induced by reserpine [2]: without modifying the ptosis induced by reserpine
effect on the hypothermia induced by reserpine ([2]; strong dose): aggravates the hypothermia induced by reserpine
effect on peripheral cholinergic symptoms (defecation) after oxotremorine ([3]; 0.5, 2, 8 and 32 mg/kg i.p., mice): increases the proportion of mice which exhibit defecation
effect on the trembling due to oxotremorine ([3]; 8 and 32 mg/kg i.p., mice): seems to increase the duration of the trembling due to oxotremorine
hypothermic effect ([3]; i.p., mice): exerts a hypothermic effect
effect on the temperature drop caused by oxotremorine ([3]; strong dose, i.p.): partially opposes the temperature drop caused by oxotremorine
effect on stereotypies induced by amphetamine [4]: stereotypies induced by amphetamine are not modified
major motor incapacity [5]: does not cause major motor incapacity
effect on blood pressure and heart rate ([6]; dogs): hypotensive and tachycardiac agent
effect on electric shock [7]: does not modify the convulsant effects of electric shock
results in the treatment of depressions [8]: good results
resumption in the activity of mice accustomed to their enclosure [9]: does not cause a resumption in the activity of mice accustomed to their enclosure
time taken for convulsions and death to occur following asphyxiant anoxia [10]: delays the time taken for convulsions and death to occur
effect on number of fights [11]: suppression of the fights
effect on the motor activity [11]: only a moderate effect on the motor activity
effect on stereotypies induced by apomorphine [12]: does not substantially impair the stereotype behavior induced by apomorphine in rats
cardiovascular parameters [13]: does not modify the cardiovascular parameters
motor recovery in mice after reduced-pressure enclosure [14]: does not cause an improvement in the motor recovery
duration of hypothermia ([15]; 2 mg/kg i.p., mice): 0.5 h
hypothermia (temperature change) ([15]; 2 mg/kg i.p., mice): -1.5 °C
duration of hypothermia ([15]; 8 mg/kg i.p., mice): 1 h
duration of piloerection ([15]; 8 mg/kg i.p., mice): 3 h
hypothermia (temperature change) ([15]; 8 mg/kg i.p., mice): -3.9 °C
piloerection, animals affected ([15]; 8 mg/kg i.p., mice): 2/3
duration of mydriasis ([15]; 32 mg/kg i.p., mice): 0.5 h
duration of reduction in the reactivity to touch and muscular tonus ([15]; 32 mg/kg i.p., mice): 2 h
hypothermia (temperature change) ([15]; 32 mg/kg i.p., mice): -4.1 °C
mydriasis ([15]; 32 mg/kg i.p., mice): moderate mydriasis
piloerection, animals affected ([15]; 32 mg/kg i.p., mice): 2 out of 3
number of punished passes [16]: does not cause an increase in the number of punished passes
α-adrenergic stimulant effect [17]: signs of peripheral α-adrenergic stimulation (salivation, piloerection, trembling); also recorded: stimulant effects, especially of the α-adrenergic type
variation of sedative effects with dose ([18]; in vivo): increase continuously with the dose administered, up to a maximum value, and then decrease continuously and progressively as the dose increases
antidepressant effects ([18]; strong doses, hydrochloride): antidepressant effects (antagonism of the hypothermia induced by apomorphine and oxotremorine); also recorded: antidepressants at strong doses
sedative effects ([18]; hydrochloride): sedative effects (hyporeactivity, hypothermia, hypomotility, significant reduction of aggressiveness, delayed onset of asphyxiant convulsions); also recorded: sedative effects (hypomotility, hypothermia, reduction of intergroup aggressiveness
mortality [19, 22]: no mortality
signs of toxicity [19, 22]: abdominal cramp and trembling
mortality [19, 23]: death (of the 3 animals in the group)
signs of toxicity [19, 23]: thick saliva and convulsions
time to death ([19]; 128 mg/kg i.p., mice): 10 min
intrinsic hypothermic effect ([20]; i.p.): exerts an intrinsic hypothermic effect
effect on righting behavior and stereotypies ([20]; i.p., apomorphine): does not modify the righting behavior and the stereotypies
effect on the hypothermia induced by apomorphine ([20]; strong dose (32 mg/kg) i.p., 16 mg/kg apomorphine): partially opposes the hypothermia induced by 16 mg/kg of apomorphine

Cc1ccc(C2CN(C(C)(C)C)CCO2)cc1.Cl (centres unmarked) [CRL 40 903, 2-p-tolyl-4-tert.-butylmorpholine hydrochloride]
sedation and depressed respiration [21]: induce sedation and depressed respiration
maximum increase in femoral flow rate ([6]; 20 mg/kg, anesthetized dogs, intraduodenal then intravenous): +150%
minimal effective dose ([6]; Canis lupus familiaris, anesthetized dogs, intraduodenal (CRL 40 903: then intravenous), read-out: dose as from which femoral flow rate is increased): ≥ 2.5 mg/kg
dose as from which tachycardia appears [6, 24]: ≥ 1 mg/kg
effect on blood pressure [6, 24]: no action on the blood pressure
effect on the hypertension induced by noradrenaline [6, 24]: does not modify the hypertension induced by noradrenaline
effect on the hypotension / effects of isoprenaline [6, 24]: reduces the hypotension induced by isoprenaline
effect of propanolol on induced vasodilation ([6]; anesthetized dogs, intraduodenal then intravenous): not completely suppressed by propanolol
vasodilator property ([6]; dog, in vivo): particularly interesting as vasodilators
sedation and depressed respiration ([15]; 64 mg/kg and 128 mg/kg i.p., male mice): induce sedation and depressed respiration
sedative effects [18]: sedative effects
LD-O (maximum non-lethal dose) ([19]; intraperitoneally, male mice): greater than 128 mg/kg
